Measurements reported in patent US20090178145A1, “Methods and targets for identifying compounds for regulating angiogenesis” (The Procter & Gamble Company, priority 2005, published 2009).

Columns and labels:
ETL = test: Zebrafish morpholino knockdown of ETL: blood circulation and intersegmental vessel morphology; assay type: in vivo
Description: (§1) To assess gene function in zebrafish (Danio rario) angiogenesis, MOs directed against ETL, GPR (or GPR176) and their respective mismatch controls are microinjected into zebrafish at the 1-2 cell stage. Blood circulation through the intersegmental vessels (ISVs) is observed in live zebrafish at 48 hpf and morphology of ISVs in the tail at 48 hpf using Phy-V antibody staining is also examined as described (Seng W. L. et al., Angiogenesis. 2004; 7(3):243-53.). The sequence for the ETL morpholino is: […]. The sequence for the mismatch […] morpholino (small case letters indicate mismatches) is: GCAcGAcTTTgATTGGAcAACTcTG. The sequence for the GPR morpholino is: […]. The sequence for the mismatch […] morpholino (small case letters indicate mismatches) is: AGgTCTgCGCcTTATCCcCCTCgAT.
While transcriptional gene changes provide the basis for investigating ETL and GPR as regulators of vascular development, experiments are carried out to obtain functional evidence that ETL and GPR are involved in blood vessel growth and development. To accomplish this, a zebrafish model may be used with ETL or GPR morpholino oligos to reduce gene expression during vasculogenesis. […] This effect is not seen in control MO injections.

GPR176 = test: Zebrafish morpholino knockdown of GPR (GPR176): blood circulation and intersegmental vessel morphology; assay type: in vivo; conditions: 48 hpf
Description: as §1
This effect is not seen in control MO injections.

Substance	zebrafish affected (same ISV phenotype as the 0.5 pmol dose) (ETL; 0.25 pmol ETL MO, 48 hpf)	zebrafish with abnormal connections and incomplete vessel formation of ISVs by immunostaining (ETL; 0.5 pmol ETL MO injected at 1-2 cell stage, 48 hpf)	body morphology in live zebrafish (ETL; 0.5 pmol ETL MO, 48 hpf)	blood circulation through the intersegmental vessels in live zebrafish (ETL; 0.5 pmol ETL MO, 48 hpf, versus mismatch control)	phenotype of knockdown in images (FIG. 7) (ETL; 48 hours post fertilization, versus mismatch control)	zebrafish affected (similar ISV phenotype as the 0.5 pmol dose) (GPR176; 0.25 pmol GPR MO)	body morphology in live zebrafish (GPR176; 0.5 pmol GPR MO)	zebrafish with abnormal connections and incomplete vessel formation of ISVs by immunostaining (GPR176; 0.5 pmol GPR MO, experiment 1)	zebrafish with abnormal connections and incomplete vessel formation of ISVs by immunostaining (GPR176; 0.5 pmol GPR MO, experiment 2)	blood circulation through the intersegmental vessels in live zebrafish (GPR176; 0.5 pmol GPR MO, versus mismatch control)
ETL MO: morpholino oligo directed against zebrafish ETL, sequence GCAGGAGTTTCATTGGAGAACTGTG (SEQ ID NO 17) (all phosphorodiamidate morpholino (PMO))	70%	100%	slightly curved body morphology	visible circulatory defects	retarded eye formation, edema in the brain and disrupted intersegmental vessel development and disrupted blood circulation	–	–	–	–	–
GPR MO: morpholino oligo directed against zebrafish GPR176, sequence AGCTCTCCGCGTTATCCGCCTCCAT (SEQ ID NO 19) (all phosphorodiamidate morpholino (PMO))	–	–	–	–	–	37%	slightly curved body morphology	76%	94%	visible circulatory defects
